Patent publication US20030180295A1, “Angiocidin: a Cys-Ser-Val-Thr-Cys-Gly specific tumor cell adhesion receptor” (Philadelphia Health and Education Corporation, priority 1999, published 2003)
“Also recorded” adds a separate entry of the source.

Assays:
[1] = target: T1, biotin-angiocidin complex binding to TSP-1 (Homo sapiens, UniProt P55036, INS254GER); test: Biotin-avidin receptor binding assay: competition; conditions: Example 23, FIGS. 29 and 30
T1 sequence (P55036 with tags, fused parts or gaps INS254GER): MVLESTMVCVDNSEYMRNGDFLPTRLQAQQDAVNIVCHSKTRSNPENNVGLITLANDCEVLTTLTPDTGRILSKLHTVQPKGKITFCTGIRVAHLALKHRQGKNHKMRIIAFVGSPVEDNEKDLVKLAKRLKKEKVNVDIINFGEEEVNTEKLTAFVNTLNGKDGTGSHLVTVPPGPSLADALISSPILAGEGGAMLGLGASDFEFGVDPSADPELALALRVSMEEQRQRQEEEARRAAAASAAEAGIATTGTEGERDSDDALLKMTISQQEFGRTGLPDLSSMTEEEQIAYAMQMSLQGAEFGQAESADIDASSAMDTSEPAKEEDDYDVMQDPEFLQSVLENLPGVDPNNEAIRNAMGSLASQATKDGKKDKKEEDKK
Method: In the following experiments, TSP-1 was covalently bound to a substrate, biotinylated angiocidin was added to the plate, and avidin-peroxidase was added to measure how much biotinylated angiocidin was attached to the TSP-1. The avidin-peroxidase was measured using a spectrophotometer at an absorbance of 450 nm.
Free angiocidin was added to the system to compete with the biotinylated angiocid in. […] Immobilized BSA was used as a negative control.
The TSP-1 peptide Cys-Ser-Val-Thr-Cys-Gly (SEQ ID NO: 1) was added to the system to compete with the TSP-1 on the plate for binding with the biotinylated angiocidin. The scrambled peptide Val-Cys-Thr-Gly-Ser-Cys (SEQ ID NO: 15) was used as a negative control and had no effect.
The avidin-biotin system discussed above was used to evaluate the competitive effect of various peptides on the binding of TSP-1 and angiocidin. […] The scrambled peptide Val-Cys-Thr-Gly-Ser-Cys-Gly (SEQ ID NO: 21) and the d-orientation peptide d-Cys-Ser-Val-Thr-Cys-Gly (SEQ ID NO: 22) were used as negative controls.

[2] = tested on: Bovine aortic endothelial cells (BAEC); test: Microvessel stability in collagen matrix; format: cell-based; conditions: added after 24 hours of microvessel formation, read after additional 24 hours
Method: An experiment was performed to evaluate the effect of angiocidin on angiogenesis. Bovine aortic endothelial cells (BAEC) were plated on a collagen matrix. Next, the cells were over-layered with collagen. Angiocidin (37 μg/ml) was added on top of the cells in the treatment plate, and the control plate only received buffer. After 24 hours, phase contrast photomicrographs (200×) were taken. In the control plate, the BAEC cells rearranged themselves into a network of microvessels. […] The experiment in this example was performed as in Example 16, however, no treatment was given to the cells initially. After 24 hours, microvessels formed in both samples, and looked similar to the control plate in FIG. 19. Buffer and angiocidin were then added to the control and treatment plates, respectively. After an additional 24 hours, Hoffman interference photomicrographs were taken. Here, the control was not affected.

[3] = tested on: Bovine aortic endothelial cells (BAEC); test: ALAMAR BLUE cell viability assay; format: cell-based
Method: (§1) Bovine aortic endothelial cells (BAEC), human umbilical vein endothelial cells (HUVEC), fibroblast cells, A549 human lung carcinoma cells (A549), MDA-MB231 human breast carcinoma cells (MB231), MCF7 human breast carcinoma cells (MCF7) were treated with 37 μg/ml of receptor, or buffer alone, for 24 hours. Viability of the cells was measured using the ALAMAR BLUE™ assay, which measures the capacity of cells to metabolize the ALAMAR BLUE™ dye. The ALAMAR BLUE™ assay (available from Biosource International, Camarillo, Calif.) quantitatively measures the proliferation of cell lines and can establish the relative cytotoxicity of chemical agents. The assay incorporates a fluorometric/colorimetric growth indicator based on detection of metabolic activity. The system incorporates an oxidation-reduction (redox) indicator that both fluoresces and changes color in response to chemical reduction of growth medium resulting from cell growth. This causes the redox indicator to change from its oxidized, non-fluorescent, blue form to its reduced, fluorescent, red form. Data can be collected using either fluorescence-based instrumentation (530-560 nm excitation wavelength and 590 nm emission wavelength) or absorbance-based instrumentation (570 nm and 600 nm).
BAEC and BSM cells were treated with increasing concentrations of angiocidin (0, 0.625, 1.25, 2.5, 5, 15, 26 and 37 μg/ml) for 24 hours. Cell viability was measured using the ALAMAR BLUE Tm assay. […] In contrast, BSM cells are unaffected.
The methods of Example 21 were followed, except BAEC cells were used. Additionally, TSP-1 was added at both 20 μg/ml and 5 μg/ml.
As discussed in Example 19 above, angiocidin was added to BAEC cells. Fragments of angiocidin were added as well. […] GST was used as a negative control. V36-R42, the active site of the antisecretory factor, had no effect, illustrating that angiocidin plays a different role from antisecretory factor.
Bovine aortic endothelial cells (BAEC) were cultured overnight in serum-free media containing either 37 μg/ml his-tagged angiocidin or his-tagged GST. Both angiocidin and GST were expressed in bacteria transformed with the pTrcHisA expression vector and purified on nickel affinity chromatography under non-denaturing conditions. Viability was measured by the ALAMAR BLUE™ assay.
This study examined the effect of anti-angiocidin antibody on angiocidin-mediated inhibition of BAEC viability. BAEC were cultured overnight in serum-free media containing either 5 μg/ml angiocidin, 5 μg/ml angiocidin plus 100 μg/ml control IgG, or 5 μg/ml angiocidin plus 100 μg/ml anti-angiocidin IgG. Viability was measured using the ALAMAR BLUE™ assay, described above.
The endothelial cells (BAEC) were incubated overnight 37 μg/ml of the angiocidin, fragments, and GST. Viability was measured using the ALAMAR BLUE™ assay.

[4] = tested on: mouse Lewis lung carcinoma cells; test: ALAMAR BLUE cell viability assay; format: cell-based; conditions: 0 to 37 μg/ml, 24 hours
Method: as §1, with “This causes the redox indicator to change from its oxidized, non-fluorescent, blue form to its reduced, fluorescent, red form.” left out
BAEC and BSM cells were treated with increasing concentrations of angiocidin (0, 0.625, 1.25, 2.5, 5, 15, 26 and 37 μg/ml) for 24 hours. Cell viability was measured using the ALAMAR BLUE Tm assay. […]

[5] = tested on: Human Aortic Endothelial Cells (HAEC); test: ALAMAR BLUE cell viability assay; format: cell-based; conditions: Example 26
[6] = tested on: Lung Human Microvascular Endothelial Cells (HMVEC-L); test: ALAMAR BLUE cell viability assay; format: cell-based; conditions: Example 26
Lewis lung carcinoma = test: Survival of mice bearing Lewis lung carcinoma (IV injected cells); format: in vivo; conditions: 50 μg IV on days 1, 3, 5, 7, 9
Method: Ten mice were injected with one million Lewis lung carcinoma tumor cells in an IV injection. After 3 days of incubation, the mice were divided into two groups. One group of five mice were treated with an IV injection of 50 μg of angiocidin in Hepes buffered saline. The control group of five mice was treated with Hepes buffered saline. Mice were treated on days 1, 3, 5, 7, and 9.

Q: What does the source list for “angiocidin: Cys-Ser-Val-Thr-Cys-Gly (SEQ ID NO: 1)-specific thrombospondin (TSP-1) receptor protein; recombinant form of SEQ ID NO: 2 used in the Examples”?
A: competition of biotin-angiocidin binding to TSP-1 [1]: the binding decreased linearly; stability of formed microvessels [2]: disrupted the microvessels that had already formed; cell viability ([3]; 0 to 37 μg/ml, 24 hours): dose dependent inhibition of BAEC cell viability; also recorded: decreases viability of BAEC cells; decrease of cell viability ([3]; 37 μg/ml, 24 hours): 70-80%; cell viability, angiocidin and fragments ([3]; Example 27, FIG. 34): inhibited cell viability; cell viability, his-tagged proteins ([3]; overnight, serum-free media, purified under non-denaturing conditions): dose-dependent effect on cell viability; cell viability [4]: does not affect the Lewis lung cells; cell viability [5]: negative effect on the viability of both cell lines; cell viability [6]: negative effect on the viability of both cell lines; median survival period (Lewis lung carcinoma): 19 days
